Earlier results on two molecules are cited in patent publication US11229596B2, “Preservative free pharmaceutical ophthalmic compositions” (PHARMATHEN S.A., priority 2016, dated 2022).

Counter-ions that a name gives are not always drawn. Like-named read-outs stand apart in the source and are kept apart here.

In one data set the test system is intraocular pressure. The settings on record: in man.

Regarding `CC(C)OC(=O)CCC/C=C\C[C@@H]1[C@@H](CC[C@@H](O)CCc2ccccc2)[C@H](O)C[C@@H]1O` [Latanoprost], in the data set with intraocular pressure, the “Duration of pressure reduction” value is reported as “at least 24 hours”, the “Start of reduction of the intraocular pressure after administration” value is given as “three to four” and the “Time to maximum effect on intraocular pressure” value was “eight to twelve”. In addition, the Solubility result (in acetonitrile) is recorded as “very soluble”. The Solubility entry (in ethanol) was “freely soluble”. Further, where the note is “in water”, the Solubility entry was “practically insoluble”.
In the case of `CC(C)(C)NC[C@H](O)COc1nsnc1N1CCOCC1` [Timolol maleate], the Solubility entry is, setting by setting: (in chloroform) “sparingly soluble”; (in cyclohexane) “insoluble”; (in ethanol) “soluble”; (in ether) “insoluble”; (in methanol) “soluble”; (in propylene glycol) “sparingly soluble”. For the same molecule, the Solubility result (in water) was “soluble”.
